# Results: patent EP2487185A1, “Hexapeptide with improved activity in the repair of cellular DNA of dermal cells” (Clinuvel Pharmaceuticals Limited, priority 2011, dated 2012)
# Non-standard residues stand in square brackets, D forms with d. Nle = CCCC[C@H](N)C(=O)O
# What was measured:
# Format in all cases: cell-based, human
# melanocyte strain 102b = experiment: Tyrosinase activity, dose-response, 6 days treatment
# Procedure: (§1) Cell numbers as well as tyrosinase activity were then determined. Tyrosinase activity was calculated first at activity/10^6 cells, and then as % of control. Twenty-four hours prior the end of the experiment, melanocytes received ^3H-tyrosinase (0.7 µCi/ml medium). The conditioned medium from each dish was collected to be assayed for tyrosinase activity, and the cell numbers were determined using a Coulter Counter. Triplicate dishes were included in each group, and duplicate samples from each dish were assayed for tyrosinase activity. Each data point is the mean percent of control of 6 determinations/group ±S.E.
# melanocyte strain 1513c = experiment: Cell proliferation as a measure of stability; settings: for Cell proliferation, column 2: column 2, not defined; for Cell proliferation, Mean [1+2]: STRAIN 1513c, mean over experiments [1] and [2]
# Procedure: With continued reference to Figs. 7, 8 and 9, to determine the stability of CUV9900 versus that of NDP-MSH and α-MSH, melanocytes were treated with 1 nM of each peptide, namely with CUV9900, NDP-MSH and α-MSH, for a total of 6 days, or with 1 nM peptides that were incubated for 5 hours at 37 °C prior to addition to the cultures, every other day, for a total of 6 days. Tyrosinase activity was measured at the end of treatment. In the experiments, cell number represents the mean percent of control of 3 determinations/ group ±SE, and tyrosinase activity data represent the mean percent of control of 6 determinations ±S.E. It should be noted that for the sake of reproducibility the experiment of strain 1513c of Fig. 9 was performed once more 6 months later than the experiment of Fig. 7.
# Peptides were incubated at 37 degrees Celsius for 5 hours and then split into groups. Cell proliferation was a measure of stability, whereby the experiments on strain 1513c were divided in period 1 and 2 under standard conditions.
# melanocyte strain 1505b [1] = experiment: Cell proliferation as a measure of stability; settings: for Cell proliferation, column 2: Table 3, 1nM, column 2, not defined; for Cell proliferation, Mean: Table 3, mean of columns 1-3
# [2] = test system: lightly pigmented strain 1563c and strain 102b; experiment: Ultrastructural visualization of DOPA-stained HM (electron microscopy); settings: 0.1 nM or 1 nM CUV9900 or 1 nM MSH; strains 1563c and 102b
# Procedure: With reference to Figs. 14 and 15, two melanocytic strains, a lightly pigmented strain 1563c of Fig. 14 and strain 102b of Fig. 15 were plated in 4-well chamber slides and treated […] with either 0.1 nM or 1 nM CUV9900 or 1 nM MSH for a total of 6 days. Cells were processed for electron microscopy in the presence or absence of histochemical reaction with DOPA. Microtome sections were analyzed in a JEOL JEM-1230 transmission electron microscope and photomicrographs (15,000 X) of the perinuclear area and dendrites were taken for each experimental group.
# melanocyte strain 1505b [3] = experiment: Tyrosinase activity, dose-response, 6 days treatment
# Procedure: as §1, with “Dose-response experiments were carried out on another adult strain 102b which is shown in Fig. 6 and on the strain 1505b which is a melanocyte strain: melanocytes were treated with 0.001-10 nM CUV9990 or NDP-MSH, or 0.1-10 nM MSH for a total of 6 days, with the culture medium changed and fresh peptide added every other day. Cell” for “Cell”
# melanocytes strain 1505b = experiment: cAMP levels (125I radioimmunoassay), dose-response; settings: at 1 nM, 45 min, 0.1 mM IBMX
# Procedure: (§2) Dose-response experiments were carried out on three melanocytic strains, namely strains 1513c, 1505b and 105c melanocytes were treated with 1 pM-10 nM CUV9900 or NDP-MSH, or with 0.1-10 nM MSH for 45 minutes in the presence of 0.1 mM isobutyl methylxanthine (IBMX). The results obtained from strain 1513c are shown in Fig. 3, the results obtained from strain 1505b are shown in Fig. 5a and the results obtained from strain 105c are shown in Fig. 5b. The strains 1505b and 1513c were obtained from the same human adult while the strain 105c was obtained from another human adult. Cyclic AMP is the second messenger for the melanocortin-1 receptor, and assessment is usually performed indicating cellular activity reflective of melanogenesis. Cyclic AMP levels were determined using ^125I-labeled radioimmunoassay kit (Perkin Elmer, Waltham, MA), in human melanocytes that were treated with 0 (control), 0.1-10.0 nM α-MSH, or 0.001-10 nM NDP-MSH or 0.001-10.0 nM CUV 9900 for 45 min. in the presence of 0.1 mM IBMX, a phosphodiesterase inhibitor to prevent cAMP degradation. Triplicate wells were included in each group, and duplicate samples from each well were assayed for cAMP levels. Each data point is the mean percent of control of 6 determinations/group ±S.E.
# melanocytes strain 105c = experiment: cAMP levels (125I radioimmunoassay), dose-response; settings: 45 min, 0.1 mM IBMX
# Procedure: as §2
# melanocytes strain 1513c = experiment: cAMP levels (125I radioimmunoassay), dose-response; settings: 45 min, 0.1 mM IBMX; for maximal level of cAMP: at 10 nM
# Procedure: as §2
# melanocytic strain 1505b = experiment: UV-induced generation of hydrogen peroxide (luminol luminescence); settings: for UV-induced hydrogen peroxide generation: strain 1505b, 105 mJ/cm^2 UV, 0, 30 and 45 minutes after UV
# Excerpt: With reference to Figs. 10 and 11, melanocytes were irradiated with a bank of FS 20 lamps, with 75% emission in the UVB, and 25% emission in the UVA spectra, with peak emission at 313 nm wavelength. Any emission of UVC rays from the UV source (FS 20 lamps) was blocked by Kodacel filter. Prior to irradiation, the culture medium was replaced by PBS, which was removed after UV exposure, and fresh medium added.
# Melanocytes were irradiated with 105 mJ/cm^2 UV, and treated immediately while in PBS with 0, 1 nM α-MSH or 1 nM CUV9900. Generation of hydrogen peroxide, representative of reactive oxygen species (ROS), was determined by measuring the luminescence of luminol at 0, 30, and 45 min after UV exposure. Triplicate dishes were included in each group, and duplicate samples from each dish were used for measurement of hydrogen peroxide at each time point. Each data point represents the mean of 6 determinations/group ±S.E.
# [4] = STRAIN 1513c [1], Table 1, mean of columns 1-3
# [5] = STRAIN 1513c [2], Table 2, mean
minimal effective dose (tyrosinase activity) (melanocyte strain 102b; 6 days treatment) [pM],Substance,"Cell proliferation, column 2 (melanocyte strain 1513c; STRAIN 1513c [1], Table 1, 1nM)","Cell proliferation, Mean (melanocyte strain 1513c; [4])","Cell proliferation, column 2 (melanocyte strain 1513c; STRAIN 1513c [2], Table 2)","Cell proliferation, Mean (melanocyte strain 1513c; [5])","Cell proliferation, Mean [1+2] (melanocyte strain 1513c; Table 2)","Cell proliferation, column 2 (melanocyte strain 1505b [1])","Cell proliferation, Mean (melanocyte strain 1505b [1])",maximal level of cAMP (melanocytes strain 1513c),UV-induced hydrogen peroxide generation (melanocytic strain 1505b; 1 nM),also measured
1,"Ac-Nle-Glu His-D-Phe-Arg-Trp-NH2 (Ac-[Nle]EH[dF]RW-NH2; SMILES CCCC[C@H](NC(C)=O)C(=O)N[C@@H](CCC(=O)O)C(=O)N[C@@H](Cc1c[nH]cn1)C(=O)N[C@H](Cc1ccccc1)C(=O)N[C@@H](CCCNC(=N)N)C(=O)N[C@@H](Cc1c[nH]c2ccccc12)C(N)=O) [CUV9900, hexapeptide, alpha-MSH analogue]",108 % of control,110.7 % of control,119.8 % of control,119.9 % of control,114.3 % of control,120 % of control,115.7 % of control,higher maximal level of cAMP than MSH,significant reduction of UV-induced hydrogen peroxide generation,"stimulation of tyrosinase activity, comparison with NDP-MSH (melanocyte strain 102b; subnanomolar concentrations): greater stimulation of tyrosinase activity than NDP-MSH; melanosomes, electron microscopy [2]: increased mature (stage IV) melanosomes in the perinuclear area and more so in dendrites; effect on tyrosinase activity, comparison with NDP-MSH (melanocyte strain 1505b [3]): equivalent to that of NDP-MSH; minimal effective dose (tyrosinase activity) (melanocyte strain 1505b [3]; 6 days treatment): 1 pM; cAMP, potency comparison (melanocytes strain 1505b): more potent than MSH; elevation of cAMP, comparison with NDP (melanocytes strain 105c; 0.01 nM and 0.1 nM): less elevation of cAMP in comparison to 0.01 nM and 0.1 nM NDP; cAMP, comparison with MSH (melanocytes strain 105c; 0.1 nM, 1 nM and 10 nM): significantly higher than 0.1 nM, 1 nM and 10 nM MSH; cAMP, potency comparison (melanocytes strain 1513c; at 0.1 nM): more potent than NDP-MSH; reducing the generation of hydrogen peroxide, comparison to NDP-MSH and MSH (melanocytic strain 1505b; at 45 minutes after UV): most effective at reducing the generation of hydrogen peroxide; hydrogen peroxide generation, comparison (melanocytic strain 1505b; at 45 minutes after irradiation, 1 nM, strain not given): lower hydrogen peroxide generation in comparison with both NDP-MSH and MSH"
1,"Ac-Ser-Tyr-Ser-Nle-Glu-His-D-Phe-Arg-Trp-Gly-Lys-Pro-Val-NH2 [NDP-MSH, reference compound]",115 % of control,112.7 % of control,117.5 % of control,115.0 % of control,113.6 % of control,105 % of control,105.0 % of control,higher maximal level of cAMP than MSH,significant reduction of UV-induced hydrogen peroxide generation,concentration achieving equal maximal stimulation of tyrosinase (melanocyte strain 102b; 6 days treatment): 1 nM
